Literature values in patent US20220220558A1, “METHODS AND SYSTEMS FOR PROGNOSIS OF A PATIENT'S RESPONSE TO TREATMENT OF ANDROGENETIC SKIN DISORDERS” (priority 2008, published 2022).

Tested on: female androgenetic alopecia
Details: clinical trials

CC(C)(C)NC(=O)[C@H]1CC[C@H]2[C@@H]3CC[C@H]4NC(=O)C=C[C@]4(C)[C@H]3CC[C@]12C [finasteride]
affect on hair re-growth in women: statistically not significant
